Test results published in patent US9114133B2, “Method of improving diastolic dysfunction” (U.S. DEPT. OF VETERANS AFFAIRS, priority 2006, dated 2015).
Marks after values point to notes of the source that are not given here.

Tests used:
isolated single myocytes = assay: Residual sarcomere length of isolated myocytes with BDM; assay type: cell-based, mouse; conditions: BDM 10 mM
Experimental: 2,3-Butanedione monoxime (BDM), a cross-bridge inhibitor, was used to measure residual sarcomere length. BDM inhibits the Ca^2+ regulated attachment of the cross-bridges and force-generation of the attached cross-bridges (Reference 16). Isolated single myocytes were loaded on an chamber and perfused with BDM (10 mM) in Tyrode's solution at 37° C. Sarcomere length was again measured while the myocytes were field-stimulated as described above.

[1] = tested on: MnSOD deficient cardiomyocytes; assay: Contraction and relaxation of cardiomyocytes from heterozygous MnSOD knockout mice (IonOptix); assay type: cell-based, mouse; conditions: BH4 treatment
Experimental: Echocardiography was used to determine DD in heterozygous MnSOD knockout mice. The mitral annulus longitudinal velocities (E′, and A′) were determined by pulsed-wave tissue Doppler from the apical four-chamber view. Mitochondrial ROS were measured by confocal microscopy and flow cytometry from isolated cardiomyocytes using MitoSOX Red. NO was measured by DAF-FM and by the Griess reaction. Contraction and relaxation impairment were assessed by lonOptix System.

[2] = tested on: isolated ventricular myocytes; assay: Isolated myocyte contraction and relaxation parameters (IonOptix); assay type: cell-based, mouse; conditions: 1.0 Hz, 10 V, external Ca2+ 1.2 mmol/L
[3] = tested on: DOCA-salt mouse model (diastolic dysfunction) and sham mice; assay: Transthoracic echocardiography, in vivo BH4 treatment in DOCA-salt mice; conditions: BH4 diet 5 mg BH4/day day 11-18, mean ± SEM
Experimental: Previously, I have shown that the DOCA-salt mouse model leads to mild hypertension, NOS uncoupling, myocardial oxidative stress, and diastolic dysfunction (Reference 10). A gradual and mild elevation in blood pressure was induced by unilateral nephrectomy, subcutaneous implantation of a controlled release deoxycorticosterone acetate (DOCA) pellet (0.7 mg/d; Innovative Research of America, Sarasota, Fla.), and substituting drinking water with 1.05% saline. Control animals underwent a sham operation, had placebo pellet implantation, and received water without salt.
Mice were divided into two groups which received a control diet (sham N=7; DOCA-salt N=10) and two groups which received a BH4 supplemental diet of 5 mg BH4/day (Research Diets Inc, New Brunswick, N.J.; sham+BH4 N=8; DOCA-salt+BH4 N=8). The supplemental diet began on day 11 after surgery, and continued until day 18, when the mice were analyzed and sacrificed.
Mitral pulse wave Doppler flow and tissue Doppler imaging (TDI) were performed using the Vevo 770 high-resolution in vivo imaging system (Visual Sonics, Toronto, Canada) (Reference 10). Mice were anesthetized with 1-1.5% isoflurane until a heart rate of around 350-390 beats/min was achieved because measures of diastolic function are sensitive to heart rate and loading conditions. M-mode images in the parasternal long axis and the left ventricle (LV) short-axis views at the mid-papillary level were taken. Measurements were averaged from five consecutive beats during expiration. The images for each mouse were recorded for at least 5 s (30-40 cardiac cycles) from which three to five representative cycles with the highest quality imaging were selected. Percent fractional shortening (% FS) was calculated as 100×(LVEDd)−(LVESd)/(LVEDd) and percent LV ejection fraction (% EF) was calculated as 100×[(7/2.4+LVEDd)×LEDd^3]−[(7/2.4+LVESd)×LVESd^3]/[(7/2.4+LVEDd)×LEDd^3]. Doppler measurements were made at the tips of the mitral leaflets for diastolic filling profiles in the apical four-chamber view. Mitral inflow velocities, peak early (E) and late (A) were measured by conventional pulsed-wave Doppler. TDI was used to determine the mitral annulus longitudinal velocities (Sm, E′, and A′) (Reference 10). Baseline images before treatment were acquired to confirm diastolic dysfunction in DOCA-salt mice. Subsequently, the mice were fed with BH4, followed by echocardiography at day 18.

[4] = myocytes from DOCA-salt + BH4 mice

## CC(=O)C(C)=NO [BDM, 2,3-Butanedione monoxime]
Isolated single myocytes; myocytes after BH4 treatment
  Residual sarcomere length: no effect
Isolated single myocytes; myocytes of sham and DOCA-salt groups
  Residual sarcomere length: increased

## C[C@H](O)[C@H](O)[C@H]1CNc2nc(N)[nH]c(=O)c2N1 [BH4, tetrahydrobiopterin]
[1]
  Relaxation constant (tau): 0.73±0.01
  Resting sarcomere length: 1.77±0.01 μm
[2]; [4]
  Diastolic SL: 1.77±0.01 μm
  Relengthening velocity: 2.39 ± 0.18 μm/s
  Sarcomere shortening: 9.48 ± 0.49%
  Shortening velocity: −2.42 ± 0.14 μm/s
  Systolic SL: 1.60 ± 0.01 μm
  Time to 50% relengthening: 240.3 ± 7.5 ms
  Time to 50% shortening: 47.5 ± 0.7 ms
  Time to 90% relengthening: 300.0 ± 13.4 ms
  Time to 90% shortening: 93.5 ± 1.8 ms
  Time to peak shortening: 146.2 ± 0.3 ms
[2]; myocytes from sham + BH4 mice
  Diastolic SL: 1.80 ± 0.01#†& μm
  Relaxation constant, τ: 0.07 ± 0.00&
  Relengthening velocity: 2.75 ± 0.18#†& μm/s
  Sarcomere shortening: 10.64 ± 0.61& %
  Shortening velocity: −2.90 ± 0.16#†& μm/s
  Systolic SL: 1.61 ± 0.01& μm
  Time to 50% relengthening: 204.7 ± 6.0&# ms
  Time to 50% shortening: 45.6 ± 0.8 ms
  Time to 90% relengthening: 258.7 ± 11.7&# ms
  Time to 90% shortening: 87.3 ± 1.8&# ms
  Time to peak shortening: 133.6 ± 0.3& ms
[3]; DOCA-salt mice
  A′ (tissue Doppler): 15.2 ± 1.0 mm/s
  EF (ejection fraction): 54.5 ± 5.0%
  E′ (tissue Doppler): 16.8 ± 1.3†^ mm/s
  FS (fractional shortening): 26.6 ± 2.9%
  LVEDD: 3.67 ± 0.14 mm
  LVESD: 2.65 ± 0.21 mm
  MV A: 367.8 ± 48.3 mm/s
  MV E: 555.0 ± 35.1†^ mm/s
  MV E/A ratio: 1.71 ± 0.33
  Sm: 15.8 ± 1.5
[3]; sham mice
  A′ (tissue Doppler): 21.1 ± 1.9 mm/s
  E/E′ ratio: 34.91 ± 6.81&
  EF (ejection fraction): 51.1 ± 2.8%
  E′ (tissue Doppler): 24.4 ± 2.2†& mm/s
  E′/A′ ratio: 1.17 ± 0.06&
  FS (fractional shortening): 24.7 ± 1.6%
  LVEDD: 4.05 ± 0.10 mm
  LVESD: 3.01 ± 0.11 mm
  MV A: 357.5 ± 31.7 mm/s
  MV E: 738.1 ± 31.1†& mm/s
  MV E/A ratio: 2.28 ± 0.33
  Sm: 22.9 ± 1.5
